This assay concerns the target recombinant DYRK1A kinase (Homo sapiens (Human), UniProt Q13627). The assay can be described thus: DYRK1A kinase assay (Ser/Thr 18 peptide Z-lyte FRET assay). It counts as biochemical. As to conditions: recombinant DYRK1A 0.25 µg/mL, ATP 15 µM, Ser/Thr peptide 18 4 µM, one hour at room temperature; table head prints EC50, method says IC50. Summed up:
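Recombinant human DYRK1A (0.25 µg/mL) with 15 µM ATP and 4 µM Ser/Thr 18 peptide was incubated 1 h at room temperature with compound (11-point, 10 µM top), in duplicate. Z-lyte FRET read-out (coumarin/fluorescein emission ratio) was converted to percent phosphorylation; IC50 from non-linear regression.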

Structures are written as SMILES.

By EC50 is commonly meant the midpoint of the concentration-response curve. Consider `Cc1nc2ncc(-c3ccn4nc(NC5CCOCC5)ncc34)cc2n1CC(F)F` [Compound 706, 5-(1-(2,2-Difluoroethyl)-2-methyl-1H-imidazo[4,5-b]pyridin-6-yl)-N-(tetrahydro-2H-pyran-4-yl)pyrrolo[2,1-f][1,2,4]triazin-2-amine], for which the EC50 was 5 nM. The value for `Cc1nc2ccc(-c3ccn4nc(N[C@H]5CN(C)C[C@@H]5F)ncc34)nc2n1CC(F)F` [Compound 1901, 5-(3-(2,2-Difluoroethyl)-2-methyl-3H-imidazo[4,5-b]pyridin-5-yl)-N-((3S,4S)-4-fluoro-1-methylpyrrolidin-3-yl)pyrrolo [2,1-f] [1,2,4]triazin-2-amine] was 4 nM; that for `Cc1nc2ccc(-c3ccn4nc(NC5CCC(F)(F)CC5)ncc34)nc2n1CC(C)(C)O` [Compound 1870, 1-(5-(2-((4,4-Difluorocyclohexyl)amino)pyrrolo[2,1-f][1,2,4]triazin-5-yl)-2-methyl-3H-imidazo[4,5-b]pyridin-3-yl)-2-methylpropan-2-ol] was 78 nM. The result for `CO[C@H]1C[C@@H](Nc2ncc3c(-c4cnc5nccn5c4)ccn3n2)C1` [Compound 239, 5-(Imidazo[1,2-a]pyrimidin-6-yl)-N-(cis-3-methoxycyclobutyl)pyrrolo[2,1-f] [1,2,4]triazin-2-amine] reads 6 nM. The value for `c1cn2cc(-c3ccn4nc(NC5CCOCC5)ncc34)ccc2n1` [Compound 67, 5-(Imidazo[1,2-a]pyridin-6-yl)-N-(tetrahydro-2H-pyran-4-yl)pyrrolo[2,1-f] [1,2,4]triazin-2-amine] was 40 nM; that for `FC(F)(CNc1ncc2c(-c3cnc4nccn4c3)ccn2n1)C1CC1` [Compound 232, N-(2-Cyclopropyl-2,2-difluoroethyl)-5-(imidazo[1,2-a]pyrimidin-6-yl) pyrrolo[2,1-f][1,2,4]triazin-2-amine] was 9 nM. With `Cc1nc2ccc(-c3ccn4nc(NC5CCN(C6COC6)CC5)ncc34)nc2n1CC(F)F` [Compound 1862, 5-(3-(2,2-Difluoroethyl)-2-methyl-3H-imidazo[4,5-b]pyridin-5-yl)-N-(1-(oxetan-3-yl)piperidin-4-yl)pyrrolo[2,1-f][1,2,4]triazin-2-amine], the half-maximal effective concentration (EC50) is 6 nM. Turning to `CCO[C@H]1CC[C@@H](Nc2ncc3c(-c4ccc5nc(C)n(CC(F)F)c5n4)ccn3n2)CC1` [Compound 1115, N-(cis-4-Ethoxycyclohexyl)-5-(3-(2,2-difluoroethyl)-2-methyl-3H-imidazo [4,5-b]pyridin-5-yl)pyrrolo[2,1-f][1,2,4]triazin-2-amine], the EC50 is 3 nM. The result for `Cc1nc2ccc(-c3ccn4nc(N[C@H]5CN(C)C[C@H]5F)ncc34)nc2n1CC(F)F` [Compound 1903, 5-(3-(2,2-Difluoroethyl)-2-methyl-3H-imidazo[4,5-b]pyridin-5-yl)-N-((3S,4R)-4-fluoro-1-methylpyrrolidin-3-yl)pyrrolo[2,1-f][1,2,4]triazin-2-amine] reads 12 nM; that for `Cc1nc2ccc(-c3ccn4nc(N[C@H](C)CO)ncc34)nc2n1CC(F)F` [Compound 1830, (R)-2-((5-(3-(2,2-Difluoroethyl)-2-methyl-3H-imidazo[4,5-b]pyridin-5-yl)pyrrolo[2,1-f][1,2,4]triazin-2-yl)amino)propan-1-ol], 16 nM; that for `CCO[C@H]1CC[C@@H](Nc2ncc3c(-c4cnc5nccn5c4)ccn3n2)CC1` [Compound 263, N-(cis-4-Ethoxycyclohexyl)-5-(imidazo[1,2-a]pyrimidin-6-yl)pyrrolo[2,1-f][1,2,4]triazin-2-amine], 6 nM.

Take `Cc1nc2ccc(-c3ccn4nc(N[C@H]5C[C@@H](N6CCOCC6)C5)ncc34)nc2n1CC(F)F` [Compound 1892, 5-(3-(2,2-Difluoroethyl)-2-methyl-3H-imidazo[4,5-b]pyridin-5-yl)-N-(cis-3-morpholinocyclobutyl)pyrrolo[2,1-f][1,2,4]triazin-2-amine]: the concentration giving a half-maximal response (EC50) amounted to 2 nM. The result for `CN(C)[C@H]1CC[C@@H](Nc2ncc3c(-c4ccc5ncccc5c4)ccn3n2)CC1` [Compound 1336, cis-N^1,N^1-Dimethyl-N^4-(5-(quinolin-6-yl)pyrrolo[2,1-f][1,2,4]triazin-2-yl) cyclohexane-1,4-diamine] reads 25 nM; that for `CO[C@H]1C[C@H](Nc2ncc3c(-c4ccc5nccnc5c4)ccn3n2)C1` [Compound 1376, N-(trans-3-Methoxycyclobutyl)-5-(quinoxalin-6-yl)pyrrolo[2,1-f][1,2,4] triazin-2-amine], 14 nM; that for `Cc1nc2ccc(-c3ccn4nc(N[C@@H]5CCN(C)C[C@@H]5F)ncc34)nc2n1CC(F)F` [Compound 1853, 5-(3-(2,2-Difluoroethyl)-2-methyl-3H-imidazo[4,5-b]pyridin-5-yl)-N-((3S,4R)-3-fluoro-1-methylpiperidin-4-yl)pyrrolo[2,1-f][1,2,4]triazin-2-amine], 5 nM.

As for `Cc1nc2ncc(-c3ccn4nc(NC5CCC6(CC5)OCCO6)ncc34)cc2n1CC(F)F` [Compound 1880, 5-(1-(2,2-Difluoroethyl)-2-methyl-1H-imidazo[4,5-b]pyridin-6-yl)-N-(1,4-dioxaspiro[4.5]decan-8-yl)pyrrolo[2,1-f][1,2,4]triazin-2-amine], the EC50 is 3 nM. The value for `Cc1nc2ccc(-c3ccn4nc(N[C@H]5CC[C@@H](O)CC5)ncc34)nc2n1CC(F)F` [Compound 1109, cis-4-((5-(3-(2,2-Difluoroethyl)-2-methyl-3H-imidazo[4,5-b]pyridin-5-yl)pyrrolo[2,1-f][1,2,4]triazin-2-yl)amino)cyclohexan-1-ol] was 6 nM; that for `CCC(=O)N1CCC(Nc2ncc3c(-c4ccc5nc(C)n(CC(F)F)c5n4)ccn3n2)CC1` [Compound 1858, 1-(4-((5-(3-(2,2-Difluoroethyl)-2-methyl-3H-imidazo[4,5-b]pyridin-5-yl)pyrrolo[2,1-f][1,2,4]triazin-2-yl)amino)piperidin-1-yl)propan-1-one] was 7 nM.

In the case of `CC(C)CN1CC2(CC(Nc3ncc4c(-c5cnc6nccn6c5)ccn4n3)C2)C1` [Compound 1756, 5-(Imidazo[1,2-a]pyrimidin-6-yl)-N-(2-isobutyl-2-azaspiro[3.3]heptan-6-yl)pyrrolo [2,1-f][1,2,4]triazin-2-amine], the EC50 stood at 18 nM.

`Cc1nc2ccc(-c3ccn4nc(N[C@H]5CC[C@@](C)(O)CC5)ncc34)nc2n1CC(F)(F)F` [Compound 1868, cis-1-Methyl-4-((5-(2-methyl-3-(2,2,2-trifluoroethyl)-3H-imidazo[4,5-b]pyridin-5-yl)pyrrolo[2,1-f] [1,2,4]triazin-2-yl)amino)cyclohexan-1-ol]: the half-maximal effective concentration (EC50) was found to be 9 nM. The value for `CC(C)Nc1ncc2c(-c3cnc4nccn4c3)ccn2n1` [Compound 214, 5-(Imidazo[1,2-a]pyrimidin-6-yl)-N-isopropylpyrrolo[2,1-f][1,2,4]triazin-2-amine] was 33 nM. The result for `Cc1nc2ncc(-c3ccn4nc(N[C@H]5CC[C@@H](OCCO)CC5)ncc34)cc2n1CC(F)F` [Compound 1878, 2-((cis-4-((5-(1-(2,2-Difluoroethyl)-2-methyl-1H-imidazo[4,5-b]pyridin-6-yl)pyrrolo[2,1-f][1,2,4]triazin-2-yl)amino)cyclohexyl)oxy)ethan-1-ol] reads 2 nM; that for `Cc1nc2ccc(-c3ccn4nc(N[C@H]5CC[C@@H](OCC(F)F)CC5)ncc34)nc2n1CC(F)F` [Compound 1838], 6 nM.

On to `Cc1nc2ccc(-c3ccn4nc(N[C@@H]5CCOC[C@H]5O)ncc34)nc2n1CC(F)F` [Compound 1866, (3S,4R)-4-((5-(3-(2,2-Difluoroethyl)-2-methyl-3H-imidazo[4,5-b]pyridin-5-yl)pyrrolo[2,1-f][1,2,4]triazin-2-yl)amino)tetrahydro-2H-pyran-3-ol], for which the EC50 turned out to be 33 nM. The value for `CN1CC(Nc2ncc3c(-c4ccc5nccn5c4)ccn3n2)C1` [Compound 64, 5-(Imidazo[1,2-a]pyridin-6-yl)-N-(1-methylazetidin-3-yl)pyrrolo[2,1-f] [1,2,4]triazin-2-amine] was 192 nM. For the molecule `Cc1nc2ccc(-c3ccn4nc(NC5CCN(C(=O)[C@H]6CC6(F)F)CC5)ncc34)nc2n1CC(F)F` [Compound 1918, (R)-(2,2-Difluorocyclopropyl)(4-((5-(3-(2,2-difluoroethyl)-2-methyl-3H-imidazo[4,5-b]pyridin-5-yl)pyrrolo[2,1-f] [1,2,4]triazin-2-yl)amino)piperidin-1-yl)methanone], the EC50 was 7 nM. The value for `Cc1nc2ccc(-c3ccn4nc(N[C@@H]5CN(C)C[C@H]5F)ncc34)nc2n1CC(F)F` [Compound 1902] was 6 nM; that for `CCc1cnc2ncc(-c3ccn4nc(NCC(C)(C)F)ncc34)cn12` [Compound 429, 5-(3-Ethylimidazo[1,2-a]pyrimidin-6-yl)-N-(2-fluoro-2-methylpropyl) pyrrolo[2,1-f] [1,2,4]triazin-2-amine] was 654 nM. The result for `c1cnc2ncc(-c3ccn4nc(N[C@H]5CC[C@@H](N6CCOCC6)CC5)ncc34)cc2c1` [Compound 1551, N-(cis-4-Morpholinocyclohcxy1)-5-(1,8-naphthyridin-3-yl)pyrrolo[2,1-f] [1,2,4]triazin-2-amine] reads 38 nM. The result for `CC(C)(F)CNc1ncc2c(-c3ccc4ncc(C(=O)N5CCCC5)n4c3)ccn2n1` [Compound 74, (6-(2-((2-Fluoro-2-methylpropyl)amino)pyrrolo[2,1-f][1,2,4]triazin-5-yl)imidazo[1,2-a]pyridin-3-yl)(pyrrolidin-1-yl)methanone] reads 5100 nM; that for `CC(=O)N[C@]1(C)C[C@@H](Nc2ncc3c(-c4ccn5nccc5c4)ccn3n2)C1` [Compound 1983, N-(trans-1-Methyl-3-((5-(pyrazolo[1,5-a]pyridin-5-yl)pyrrolo[2,1-f][1,2,4]triazin-2-yl)amino)cyclobutyl)acetamide], 1 nM.

These data come from patent US20230312605A1, “PYRROLO[2,1-F][1,2,4]TRIAZINES AND PREPARATION AND USES THEREOF” (BioSplice Therapeutics, Inc., priority 2021, published 2023).
